Experimental data from ChEMBL document CHEMBL6092154, “Design, synthesis, and evaluation of a novel TRAIL-activated HDAC6 inhibitor for the treatment of pulmonary fibrosis” (Bioorg Med Chem, 2024).
Active and inactive are the calls of the source. No cut-off for these calls is given here.

Experiments:
[1] = target: T1, Protein deacetylase HDAC6 (Homo sapiens) (UniProt Q9UBN7); experiment: Inhibition of HDAC6 (unknown origin) at 1 uM incubated for 30 mins by fluorometric analysis
T1 sequence (whole entry): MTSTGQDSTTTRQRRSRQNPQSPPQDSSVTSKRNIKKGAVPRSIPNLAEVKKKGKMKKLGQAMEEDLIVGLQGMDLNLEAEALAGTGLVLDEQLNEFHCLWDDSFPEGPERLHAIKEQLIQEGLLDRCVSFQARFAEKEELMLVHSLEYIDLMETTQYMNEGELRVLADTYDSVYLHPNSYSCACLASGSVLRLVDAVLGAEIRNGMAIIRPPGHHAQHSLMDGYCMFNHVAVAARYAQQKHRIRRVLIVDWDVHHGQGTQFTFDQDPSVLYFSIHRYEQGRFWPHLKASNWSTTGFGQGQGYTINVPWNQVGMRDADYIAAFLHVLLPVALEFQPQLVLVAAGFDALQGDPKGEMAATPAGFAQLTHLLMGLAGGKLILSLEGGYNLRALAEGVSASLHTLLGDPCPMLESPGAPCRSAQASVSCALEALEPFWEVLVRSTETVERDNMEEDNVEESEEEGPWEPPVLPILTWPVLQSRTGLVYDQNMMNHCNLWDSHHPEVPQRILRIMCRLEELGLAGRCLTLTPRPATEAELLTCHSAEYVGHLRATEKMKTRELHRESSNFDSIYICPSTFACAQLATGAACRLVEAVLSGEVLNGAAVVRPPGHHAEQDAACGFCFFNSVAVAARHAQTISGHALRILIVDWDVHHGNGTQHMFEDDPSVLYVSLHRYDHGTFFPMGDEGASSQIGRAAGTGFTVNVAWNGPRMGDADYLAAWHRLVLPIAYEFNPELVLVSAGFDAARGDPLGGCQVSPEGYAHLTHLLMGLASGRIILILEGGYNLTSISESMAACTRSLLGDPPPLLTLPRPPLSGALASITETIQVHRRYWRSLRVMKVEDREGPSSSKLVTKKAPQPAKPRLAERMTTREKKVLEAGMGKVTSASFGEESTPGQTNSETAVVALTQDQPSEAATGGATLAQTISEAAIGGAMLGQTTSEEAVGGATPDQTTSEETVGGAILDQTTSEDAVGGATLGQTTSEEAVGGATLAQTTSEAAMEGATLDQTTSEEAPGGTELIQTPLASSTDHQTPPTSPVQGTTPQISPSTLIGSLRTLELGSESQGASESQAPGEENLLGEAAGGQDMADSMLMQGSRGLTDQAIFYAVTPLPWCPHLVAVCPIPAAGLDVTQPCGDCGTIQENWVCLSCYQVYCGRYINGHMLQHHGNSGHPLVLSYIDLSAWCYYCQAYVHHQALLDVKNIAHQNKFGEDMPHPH

[2] = system: NIH3T3; experiment: Antiproliferative activity against mouse NIH/3T3 cells assessed as inhibition of cell growth incubated for 24 to 48 hrs by CCK8 assay; type: functional, cell-based
[3] = target: T1, Protein deacetylase HDAC6 (Homo sapiens); experiment: Inhibition of HDAC6 in human RPMI-8226 cells assessed as increase in acetylated histone H3 level at 0.25 to 1 uM incubated for 24 hrs by western blot analysis; type: cell-based; conditions: dose 0.25-1 µM
[4] = system: RPMI-8226; experiment: Increase in TRAIL protein expression in human RPMI-8226 cells at 0.5 uM incubated for 24 hrs by western blot analysis; type: functional, cell-based
[5] = system: Mus musculus; experiment: Anti-pulmonary fibrosis activity in bleomycin-induced idiopathic pulmonary fibrosis C57BL/6J mouse model assessed as decrease in lung damage by measuring decrease in inflammatory cell infiltration in lungs at 25 to 50 mg/kg, ig administered daily via gavage and measured on day 14 by Masson's trichrome staining based analysis; type: functional, organism-based; conditions: dose 25-50 mg/kg, time 14.0 day
[6] = target: T2, Protein deacetylase HDAC6 (Mus musculus) (UniProt Q9Z2V5); experiment: In vivo inhibition of HDAC6 in bleomycin-induced idiopathic pulmonary fibrosis C57BL/6J mouse model assessed as increase in acetylated histone H4 level in lung at 50 mg/kg, ig administered via gavage and measured on day 14 by western blot analysis; type: functional, organism-based; conditions: time 14.0 day
T2 sequence (whole entry): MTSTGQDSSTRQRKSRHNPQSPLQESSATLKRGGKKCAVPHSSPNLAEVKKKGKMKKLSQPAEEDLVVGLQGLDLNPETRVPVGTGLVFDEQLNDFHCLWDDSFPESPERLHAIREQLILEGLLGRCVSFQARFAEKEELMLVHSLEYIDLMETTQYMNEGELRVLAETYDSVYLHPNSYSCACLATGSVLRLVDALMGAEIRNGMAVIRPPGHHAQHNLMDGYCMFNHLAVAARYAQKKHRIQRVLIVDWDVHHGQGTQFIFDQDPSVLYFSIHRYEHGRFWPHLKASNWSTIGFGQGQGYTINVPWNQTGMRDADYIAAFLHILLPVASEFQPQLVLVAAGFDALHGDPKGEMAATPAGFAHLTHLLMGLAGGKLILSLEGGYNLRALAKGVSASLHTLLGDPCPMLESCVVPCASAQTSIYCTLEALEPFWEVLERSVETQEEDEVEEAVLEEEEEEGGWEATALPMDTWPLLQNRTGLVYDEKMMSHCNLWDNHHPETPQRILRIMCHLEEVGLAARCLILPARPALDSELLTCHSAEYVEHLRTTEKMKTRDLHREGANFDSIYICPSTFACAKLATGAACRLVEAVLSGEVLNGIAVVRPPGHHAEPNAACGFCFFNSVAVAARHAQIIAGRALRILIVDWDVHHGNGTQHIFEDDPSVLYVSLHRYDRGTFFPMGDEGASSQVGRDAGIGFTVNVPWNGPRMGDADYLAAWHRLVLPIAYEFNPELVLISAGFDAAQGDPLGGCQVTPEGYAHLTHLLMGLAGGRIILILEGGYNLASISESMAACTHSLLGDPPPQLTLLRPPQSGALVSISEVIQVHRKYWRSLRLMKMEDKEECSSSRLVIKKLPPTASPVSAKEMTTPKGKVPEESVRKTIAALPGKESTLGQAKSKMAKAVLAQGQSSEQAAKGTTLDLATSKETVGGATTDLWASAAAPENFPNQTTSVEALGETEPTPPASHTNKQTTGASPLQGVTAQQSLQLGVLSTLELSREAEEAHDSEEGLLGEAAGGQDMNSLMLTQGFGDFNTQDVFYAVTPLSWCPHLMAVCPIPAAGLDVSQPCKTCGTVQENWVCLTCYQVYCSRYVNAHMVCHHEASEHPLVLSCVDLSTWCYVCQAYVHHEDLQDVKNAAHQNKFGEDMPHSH

[7] = Toxicity against bleomycin-induced pulmonary fibrosis C57BL/6J mouse model assessed as effect on heart morphological changes at 25 to 50 mg/kg, ig administered daily via gavage and measured on day 14 by Hematoxylin-Eosin staining based analysis; type: organism-based; conditions: in vivo, po, 336 h, dose 25-50 mg/kg, time 14 day

With `O=C(NO)c1ccc(CN2C(=O)C3=C(CCN(Cc4cccc(Cl)c4)C3)N3CCN=C23)cc1` the inhibition [1] was 94.8%, the IC50 [2] was 890 nM and the inhibition [3] was “Active; Less Affected”. For the same compound, the Activity [4] was “Active; Comparable Activity To 1 Um Compound Iic And Greater Activity Compared To 1 Um Chidamide, Acy-1215”, the Activity [5] was “Active” and the inhibition [6] was “Active; Levels Lower Than The Positive Control, Acy-1215”. The Activity [7] was “Non-toxic”.
